By solubility is commonly meant the dissolved amount per volume that the medium holds. High values mean a readily soluble substance, low ones a poorly soluble substance. The IC50 is the concentration that gives 50% inhibition.

The nature of data set [1]: Compound solubility in water. The data set is classed as physicochemical.
For a further data set, the target named is T1, acid ceramidase (hACR) (Homo sapiens, UniProt Q13510).
T1 construct: expressed in transfected cells; cell lysate used
T1 sequence (Q13510 143-395 limits assumed): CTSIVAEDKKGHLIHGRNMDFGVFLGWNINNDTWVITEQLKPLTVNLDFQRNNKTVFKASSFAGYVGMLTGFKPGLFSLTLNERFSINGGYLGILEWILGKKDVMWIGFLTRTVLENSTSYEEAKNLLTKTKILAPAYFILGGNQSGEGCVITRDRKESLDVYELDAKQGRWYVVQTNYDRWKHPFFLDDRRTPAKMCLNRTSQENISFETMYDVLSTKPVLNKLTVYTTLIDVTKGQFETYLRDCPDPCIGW
T1 sequence (Q13510 22-142 limits assumed): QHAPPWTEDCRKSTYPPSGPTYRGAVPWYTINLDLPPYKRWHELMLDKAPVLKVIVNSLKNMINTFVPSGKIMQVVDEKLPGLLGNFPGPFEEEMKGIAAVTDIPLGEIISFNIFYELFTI
Kind of data set: Acid ceramidase inhibition, biochemical fluorescent assay with cell lysates overexpressing acid ceramidase, substrate Rbm14-12. To be noted: cell lysates overexpressing acid ceramidase; 1 hr preincubation at RT; pH 4.5; substrate Rbm14-12 6.3 μM; read-out: hACR IC50. In a few lines:
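Enzyme source was lysate (10 µg protein) from cells overexpressing acid ceramidase, preincubated 1 hr at RT with compound dose series in 25 mM NaAc, 100 mM NaCl, pH 4.5. Rbm14-12 (6.3 μM final) reacted 1 hr at RT; stop buffer (methanol, NaIO4, glycine, pH 10.6) 1 hr, fluorescence ex360/em446; IC50 from four-parameter fit.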

In brackets after ≈: the same amount, converted by molar mass.

`CC1(C)CC(=O)c2ccccc2N1C(=O)NCCc1ccccc1` [Example 28, 2,2-Dimethyl-4-oxo-N-phenethyl-3,4-dihydroquinoline-1(2H)-carboxamide]: the concentration in solution in data set [1] (solubility) came to 3.1 µM (≈ 0.999 µg/mL). In addition, on acid ceramidase (hACR), the IC50 is greater than 1 µM.
For `CN1CCN(c2cccc3c2CCC(C)(C)N3C(=O)NCCc2ccccc2)CC1` [Example 29, 2,2-Dimethyl-5-(4-methylpiperazin-1-yl)-N-phenethyl-3,4-dihydroquinoline-1(2H)-carboxamide] the same measures were 31.7 µM (≈ 12.9 µg/mL) and greater than 1 µM.
For `CN1CCN(c2ccc3c(c2)CCC(C)(C)N3C(=O)NCCc2ccccc2)CC1` [Example 30, 2,2-Dimethyl-6-(4-methylpiperazin-1-yl)-N-phenethyl-3,4-dihydroquinoline-1(2H)-carboxamide] the same measures were 36.4 µM (≈ 14.8 µg/mL) and 0.2 to 1 µM.
The matching figures for `CCCCNC(=O)N1CCC2(CCCCO2)CC1(C)C` (centres unmarked) [Example 31, N-Butyl-8,8-dimethyl-1-oxa-9-azaspiro[5.5]undecane-9-carboxamide]: 32 µM (≈ 9.04 µg/mL) and greater than 1 µM.
Regarding `CCCCNC(=O)N1c2cccc(N3CCN(C)CC3)c2CCC1(C)C` [Example 33, N-Butyl-2,2-dimethyl-5-(4-methylpiperazin-1-yl)-3,4-dihydroquinoline-1(2H)-carboxamide], the concentration in solution in data set [1] (solubility) came to 22.7 µM (≈ 8.14 µg/mL). Further, the IC50 on acid ceramidase (hACR) was in the range of 0.2 to 1 µM.
For `CN1CCN(C(=O)NCCc2ccccc2)C(C)(C)C1` [Example 34, 2,2,4-Trimethyl-N-phenethylpiperazine-1-carboxamide] the same measures were 23.6 µM (≈ 6.5 µg/mL) and greater than 1 µM.
The matching figures for `CC1(C)CCc2cccc(F)c2N1C(=O)NCCc1ccccc1` [Example 35, 8-Fluoro-2,2-dimethyl-N-phenethyl-3,4-dihydroquinoline-1(2H)-carboxamide]: 6.02 µM (≈ 1.97 µg/mL) and 0.2 to 1 µM.
The matching figures for `CCCCNC(=O)N1CCN(C)CC1(C)C` [Example 37, N-Butyl-2,2,4-trimethylpiperazine-1-carboxamide]: 19.1 µM (≈ 4.34 µg/mL) and greater than 1 µM.
On to `CCCCNC(=O)N1CCN(C2CCCN(C)C2)CC1(C)C` (centres unmarked) [Example 38], for which the solubility in data set [1] stood at 35.8 µM (≈ 11.1 µg/mL). The IC50 at acid ceramidase (hACR) is greater than 1 µM.
The matching figures for `CCCCNC(=O)N1CCC(OC2CCN(C)CC2)CC1(C)C` (centres unmarked) [Example 39, N-Butyl-2,2-dimethyl-4-((1-methylpiperidin-4-yl)oxy)piperidine-1-carboxamide]: 34.8 µM (≈ 11.3 µg/mL) and greater than 1 µM.
For `CC1(C)CCCCN1C(=O)NCCCc1ccccc1` [Example 40, 2,2-Dimethyl-N-(3-phenylpropyl)piperidine-1-carboxamide] the same measures were 23.4 µM (≈ 6.42 µg/mL) and less than 0.2 µM.
The matching figures for `CC(C)CCNC(=O)N1CCC(Oc2ccccc2)CC1(C)C` (centres unmarked) [Example 41, N-iso-Pentyl-2,2-dimethyl-4-phenoxypiperidine-1-carboxamide]: 3.7 µM (≈ 1.18 µg/mL) and 0.2 to 1 µM.
As to `CC(C)CCNC(=O)N1CCN(c2ccccc2)CC1(C)C` [Example 42, N-iso-Pentyl-2,2-dimethyl-4-phenylpiperazine-1-carboxamide], the concentration in solution in data set [1] (solubility) was 7 µM (≈ 2.12 µg/mL). Further, the concentration for half-maximal inhibition (IC50) at acid ceramidase (hACR) is greater than 1 µM.
The matching figures for `CC1(C)CC2(CCCCO2)CCN1C(=O)NCCCCC1CC1` (centres unmarked) [Example 43, N-(4-Cyclopropylbutyl)-8,8-dimethyl-1-oxa-9-azaspiro[5.5]undecane-9-carboxamide]: 16.5 µM (≈ 5.32 µg/mL) and 0.2 to 1 µM.
For `C=CCCCCNC(=O)N1CCC2(CCCCO2)CC1(C)C` (centres unmarked) [Example 44, N-(Hex-5-en-1-yl)-8,8-dimethyl-1-oxa-9-azaspiro[5.5]undecane-9-carboxamide] the same measures were 20.8 µM (≈ 6.42 µg/mL) and 0.2 to 1 µM.
For `O=C(NCCc1ccccc1)N1CCCCC12CCCC2` [Example 45, N-Phenethyl-6-azaspiro[4.5]decane-6-carboxamide] the same measures were 6 µM (≈ 1.72 µg/mL) and 0.2 to 1 µM.
Turning to `O=C(NCCc1ccccc1)N1CCCCC12CCC2` [Example 46, N-Phenethyl-5-azaspiro 3.5 nonane-5-carboxamide], the concentration in solution in data set [1] (solubility) came to 17.5 µM (≈ 4.77 µg/mL). In addition, the IC50 on acid ceramidase (hACR) was greater than 1 µM.
The matching figures for `CC1(C)CCc2c(C#N)cccc2N1C(=O)NCCc1ccccc1` [Example 47, 5-cyano-2,2-dimethyl-N-phenethyl-3,4-dihydroquinoline-1(2H)-carboxamide]: 1.7 µM (≈ 0.567 µg/mL) and 0.2 to 1 µM.
For `CN1CC(c2cccc3c2CCC(C)(C)N3C(=O)NCCc2ccccc2)C1` [Example 49], the solubility in data set [1] was 35.3 µM (≈ 13.3 µg/mL). In addition, the IC50 on acid ceramidase (hACR) is 0.2 to 1 µM.
In data set [1], `CN1CC(c2ccc3c(c2)N(C(=O)NCCc2ccccc2)C(C)(C)CC3)C1` [Example 50] came in with a solubility of 32.2 µM (≈ 12.2 µg/mL). Besides, the IC50 at acid ceramidase (hACR) is less than 0.2 µM.
The matching figures for `CC1(C)CCc2c(C3COC3)cccc2N1C(=O)NCCc1ccccc1` [Example 51]: 0.9 µM (≈ 0.328 µg/mL) and 0.2 to 1 µM.
The matching figures for `CC1(C)CCc2ccc(C3COC3)cc2N1C(=O)NCCc1ccccc1` [Example 52]: 5 µM (≈ 1.82 µg/mL) and 0.2 to 1 µM.
The matching figures for `CC1(C)COCCN1C(=O)NCCc1ccccc1` [Example 53, 3,3-Dimethyl-N-phenethylmorpholine-4-carboxamide]: 25.6 µM (≈ 6.72 µg/mL) and greater than 1 µM.
In data set [1], `CC1(C)CCCN1C(=O)NCCc1ccccc1` [Example 54, 2,2-Dimethyl-N-phenethylpyrrolidine-1-carboxamide] had a solubility of 25.6 µM (≈ 6.31 µg/mL). The IC50 at acid ceramidase (hACR) is greater than 1 µM.
In the case of `CC1(C)CC(c2ccccc2)CCN1C(=O)NCCc1ccccc1` (centres unmarked) [Example 55, 2,2-Dimethyl-N-phenethyl-4-phenylpipridine-1-carboxamide], the concentration in solution in data set [1] (solubility) was 0.4 µM (≈ 0.135 µg/mL). The IC50 on acid ceramidase (hACR) is less than 0.2 µM.
The matching figures for `O=C(NCCCc1ccccc1)N1CCCCC12CCCC2` [Example 56, N-(3-Phenylpropyl)-6-azaspiro[4.5]decane-6-carboxamide]: 4.9 µM (≈ 1.47 µg/mL) and less than 0.2 µM.
For `O=C(NCCCc1ccccc1)N1CCCC12CCCC2` [Example 57, N-(3-Phenylpropyl)-1-azaspiro[4.4]nonane-1-carboxamide] the same measures were 19.4 µM (≈ 5.56 µg/mL) and greater than 1 µM.
In the case of `O=C(NCCCc1ccc(F)cc1)N1CCCCC12CCCC2` [Example 58, N-(3-(4-Fluorophenyl)propyl)-6-azaspiro[4.5]decane-6-carboxamide], in data set [1], the solubility is 3 µM (≈ 0.955 µg/mL). Also, on acid ceramidase (hACR), the IC50 was less than 0.2 µM.
The matching figures for `O=C(NCCCc1ccc(F)cc1F)N1CCCCC12CCCC2` [Example 59, N-(3-(2,4-difluorophenyl)propyl)-6-azaspiro[4.5]decane-6-carboxamide]: 1.1 µM (≈ 0.37 µg/mL) and less than 0.2 µM.
For `O=C(NCCCc1ccccc1)N1CCOCC12CCCC2` [Example 60, N-(3-Phenylpropyl)-9-oxa-6-azaspiro[4.5]decane-6-carboxamide] the same measures were 25.2 µM (≈ 7.62 µg/mL) and greater than 1 µM.
For `CC1(C)CC(F)(F)CCN1C(=O)NCCCc1ccccc1` [Example 61, 4,4-Difluoro-2,2-dimethyl-N-(3-phenylpropyl)piperidine-1-carboxamide] the same measures were 25.7 µM (≈ 7.98 µg/mL) and less than 0.2 µM.
